Measured values from patent publication US8192962B2, “Processes for detecting toxic substances” (Daikin Industries, Ltd., priority 2001, dated 2012).

System: Metabolism protein genes
Assay: DNA chip mRNA expression in yeast, metabolism protein genes (Table 7)
Assay type: cell-based, Saccharomyces cerevisiae S288C
Procedure: Yeast (Saccharomyces cerevisiae S288C (α SUC2mal mel gap2 CUP1)) were incubated at 25° C. on YPD medium (yeast extract 1%, polypepton 2%, glucose 2%). One of toxic chemical substances was added to the cells at logarithmic growth phase, and the cells were further incubated for two hours. Cells were cultured without any chemical substance in the same condition, and were used as control. Concentrations of the chemical substances were defined to inhibit the growth of the yeast but not lead to death.
After completion of the incubation, the culture was centrifuged to collect the cells. To the cells, sodium acetate buffer (50 mM sodium acetate, 10 mM EDTA, 1% SDS) was added, and the mixture was shaken at 65° C. for five minutes, followed by returning to room temperature, and obtaining the supernatant, of which the procedures were repeated two times. To the supernatant, ½ amount of a solution of phenol/chloroform was added, and the mixture was centrifuged to give a supernatant, which was added with an equal amount of chloroform, and the mixture was centrifuged to give a supernatant. To the supernatant, an equal amount of isopropanol containing 0.3 M sodium acetate was added, and the mixture was allowed to stand at room temperature for 30 minutes, after which the mixture was centrifuged to give a sediment of the whole RNAs. Seventy % ethanol was added to the sediment, and the mixture was again centrifuged to give a sediment, which was then dried and dissolved in water. mRNA was isolated from the whole RNAs as followings. In view of the fact that a poly A chain is attached to the 3′ terminus of mRNA, a polynucleotide having a poly T structure which was immobilized on the surface of latex beads was used to trap the mRNA, and then the mRNA was washed and eluted with spine column (Oligotex-dT30<Super>mRNA Purification Kit, Takara). Reverse transcription of the mRNA was conducted with a reverse transcriptase (Super Script II Reverse Transcriptase; catalogue No. 18064-014, GibcoBRL) using fluorescence-labeled nucleotides to give cDNAs that were introduced with Cy3-dUTP or Cy5-dUTP during the reverse transcription.
The labeled cDNAs were dissolved in TE buffer (10mM Tris-HCl/1 mM EDTA, pH8.0), and the solution was dropped on the DNA chip containing the whole genes of yeast (DNA Chip Research Inc. Japan) so that the cDNAs were hybridized on the DNA chip at 65° C. for over 12 hours. The fluoresces intensity of the DNA chip was read with a scanner, and the ratio relative to the fluorescence intensity resulting from the absence of chemical substance was estimated as the following, which is shown in Tables 1 to 9: […]

N#Cc1c(Cl)c(Cl)c(Cl)c(C#N)c1Cl [(9), 2,4,5,6-tetrachloro-1,3-benzenedicarbonitrile]
level of expressed mRNA in the presence/in the absence of chemical substance (yeast gene YJL121C): 0.1
The level of expressed mRNA in the presence of chemical substance/The level of expressed mRNA in the absence of chemical substance (yeast gene YJL172W): 0.7
The level of expressed mRNA in the presence of chemical substance/The level of expressed mRNA in the absence of chemical substance (yeast gene YJL219W): 4.0
The level of expressed mRNA in the presence of chemical substance/The level of expressed mRNA in the absence of chemical substance (yeast gene YJL221C): 2.7
level of expressed mRNA in the presence/in the absence of chemical substance (yeast gene YJR077C): 0.4
The level of expressed mRNA in the presence of chemical substance/The level of expressed mRNA in the absence of chemical substance (yeast gene YJR137C): 9.0
level of expressed mRNA in the presence/in the absence of chemical substance (yeast gene YJR143C): 0.1
The level of expressed mRNA in the presence of chemical substance/The level of expressed mRNA in the absence of chemical substance (yeast gene YJR148W): 0.7
The level of expressed mRNA in the presence of chemical substance/The level of expressed mRNA in the absence of chemical substance (yeast gene YJR155W): 38.2
The level of expressed mRNA in the presence of chemical substance/The level of expressed mRNA in the absence of chemical substance (yeast gene YKL035W): 0.8
level of expressed mRNA in the presence/in the absence of chemical substance (yeast gene YKL060C): 0.3
The level of expressed mRNA in the presence of chemical substance/The level of expressed mRNA in the absence of chemical substance (yeast gene YKL091C): 2.3
The level of expressed mRNA in the presence of chemical substance/The level of expressed mRNA in the absence of chemical substance (yeast gene YKL104C): 1.4
level of expressed mRNA in the presence/in the absence of chemical substance (yeast gene YKL148C): 1.7
The level of expressed mRNA in the presence of chemical substance/The level of expressed mRNA in the absence of chemical substance (yeast gene YKL152C): 0.9
level of expressed mRNA in the presence/in the absence of chemical substance (yeast gene YKL157W): 1.7
The level of expressed mRNA in the presence of chemical substance/The level of expressed mRNA in the absence of chemical substance (yeast gene YKL213C): 4.8
The level of expressed mRNA in the presence of chemical substance/The level of expressed mRNA in the absence of chemical substance (yeast gene YKL215C): 1.3
level of expressed mRNA in the presence/in the absence of chemical substance (yeast gene YKR034W): 0.5
The level of expressed mRNA in the presence of chemical substance/The level of expressed mRNA in the absence of chemical substance (yeast gene YKR039W): 1.9
The level of expressed mRNA in the presence of chemical substance/The level of expressed mRNA in the absence of chemical substance (yeast gene YLL058W): 3.5
level of expressed mRNA in the presence/in the absence of chemical substance (yeast gene YLR006C): 1.1
level of expressed mRNA in the presence/in the absence of chemical substance (yeast gene YLR058C): 0.2
level of expressed mRNA in the presence/in the absence of chemical substance (yeast gene YLR081W): 0.1
level of expressed mRNA in the presence/in the absence of chemical substance (yeast gene YLR089C): 0.5
The level of expressed mRNA in the presence of chemical substance/The level of expressed mRNA in the absence of chemical substance (yeast gene YLR142W): 3.1
The level of expressed mRNA in the presence of chemical substance/The level of expressed mRNA in the absence of chemical substance (yeast gene YLR164W): 5.3
The level of expressed mRNA in the presence of chemical substance/The level of expressed mRNA in the absence of chemical substance (yeast gene YLR180W): 0.8
The level of expressed mRNA in the presence of chemical substance/The level of expressed mRNA in the absence of chemical substance (yeast gene YLR260W): 2.6
The level of expressed mRNA in the presence of chemical substance/The level of expressed mRNA in the absence of chemical substance (yeast gene YLR273C): 2.8
level of expressed mRNA in the presence/in the absence of chemical substance (yeast gene YLR284C): 0.9
The level of expressed mRNA in the presence of chemical substance/The level of expressed mRNA in the absence of chemical substance (yeast gene YLR299W): 4.9
The level of expressed mRNA in the presence of chemical substance/The level of expressed mRNA in the absence of chemical substance (yeast gene YLR300W): 0.0
level of expressed mRNA in the presence/in the absence of chemical substance (yeast gene YLR304C): 0.1
The level of expressed mRNA in the presence of chemical substance/The level of expressed mRNA in the absence of chemical substance (yeast gene YLR307W): 0.6
The level of expressed mRNA in the presence of chemical substance/The level of expressed mRNA in the absence of chemical substance (yeast gene YLR348C): 2.1
level of expressed mRNA in the presence/in the absence of chemical substance (yeast gene YLR354C): 0.4
level of expressed mRNA in the presence/in the absence of chemical substance (yeast gene YML022W): 0.3
The level of expressed mRNA in the presence of chemical substance/The level of expressed mRNA in the absence of chemical substance (yeast gene YML042W): 3.8
The level of expressed mRNA in the presence of chemical substance/The level of expressed mRNA in the absence of chemical substance (yeast gene YML054C): 4.1
The level of expressed mRNA in the presence of chemical substance/The level of expressed mRNA in the absence of chemical substance (yeast gene YML070W): 4.5
The level of expressed mRNA in the presence of chemical substance/The level of expressed mRNA in the absence of chemical substance (yeast gene YML100W): 1.7
The level of expressed mRNA in the presence of chemical substance/The level of expressed mRNA in the absence of chemical substance (yeast gene YML110C): 2.7
The level of expressed mRNA in the presence of chemical substance/The level of expressed mRNA in the absence of chemical substance (yeast gene YMR008C): 0.3
level of expressed mRNA in the presence/in the absence of chemical substance (yeast gene YMR015C): 0.1
The level of expressed mRNA in the presence of chemical substance/The level of expressed mRNA in the absence of chemical substance (yeast gene YMR020W): 2.3
level of expressed mRNA in the presence/in the absence of chemical substance (yeast gene YMR083W): 0.4
The level of expressed mRNA in the presence of chemical substance/The level of expressed mRNA in the absence of chemical substance (yeast gene YMR105C): 0.6
The level of expressed mRNA in the presence of chemical substance/The level of expressed mRNA in the absence of chemical substance (yeast gene YMR189W): 0.7
level of expressed mRNA in the presence/in the absence of chemical substance (yeast gene YMR205C): 0.3
